Here are results for 28 compounds from patent US8772300B2, “Phenyl or pyridinyl-ethynyl derivatives” (Hoffmann-La Roche Inc., priority 2011, dated 2014).

Broadly, the EC50 is the concentration giving half of the maximal effect.

The target of the assay is T1, human mGlu5a receptor (Homo sapiens, UniProt P41594).
T1 construct: expressed in transfected cells
The experiment in a line: Intracellular Ca2+ mobilization assay (mGlu5 PAM). Conditions: for Emax: HEK293, maximal response in % of the maximal stimulatory effect obtained with saturating concentrations of L-glutamate, HEK-293 human mGlu5a cells, read-out: Eff. (%); for EC50: HEK-293 cells stably transfected with human mGlu5a receptor, L-glutamate added at EC20 (typically around 80 μM) after 10-30 min pre-incubation with test compound, read-out: EC50 (nM) mGlu5PAM. It is filed as cell-based. The protocol: A monoclonal HEK-293 cell line stably transfected with a cDNA encoding for the human mGlu5a receptor was generated; for the work with mGlu5 Positive Allosteric Modulators (PAMs), a cell line with low receptor expression levels and low constitutive receptor activity was selected to allow the differentiation of agonistic versus PAM activity. Cells were cultured according to standard protocols (Freshney, 2000) in Dulbecco's Modified Eagle Medium with high glucose supplemented with 1 mM glutamine, 10% (vol/vol) heat-inactivated bovine calf serum, Penicillin/Streptomycin, 50 μg/ml hygromycin and 15 μg/ml blasticidin (all cell culture reagents and antibiotics from Invitrogen, Basel, Switzerland).
About 24 hrs before an experiment, 5×10^4 cells/well were seeded in poly-D-lysine coated, black/clear-bottomed 96-well plates. The cells were loaded with 2.5 μM Fluo-4AM in loading buffer (1×HBSS, 20 mM HEPES) for 1 hr at 37° C. and washed five times with loading buffer. The cells were transferred into a Functional Drug Screening System 7000 (Hamamatsu, Paris, France), and 11 half logarithmic serial dilutions of test compound at 37° C. were added and the cells were incubated for 10-30 min with on-line recording of fluorescence. Following this pre-incubation step, the agonist L-glutamate was added to the cells at a concentration corresponding to EC20 (typically around 80 μM) with on-line recording of fluorescence; in order to account for day-to-day variations in the responsiveness of cells, the EC20 of glutamate was determined immediately ahead of each experiment by recording of a full dose-response curve of glutamate.
Responses were measured as peak increase in fluorescence minus basal (i.e. fluorescence without addition of L-glutamate), normalized to the maximal stimulatory effect obtained with saturating concentrations of L-glutamate. Graphs were plotted with the % maximal stimulatory using XLfit, a curve fitting program that iteratively plots the data using Levenburg Marquardt algorithm. The single site competition analysis equation used was y=A+((B−A)/(1+((x/C)D))), where y is the % maximal stimulatory effect, A is the minimum y, B is the maximum y, C is the EC50, x is the log 10 of the concentration of the competing compound and D is the slope of the curve (the Hill Coefficient). From these curves the EC50 (concentration at which half maximal stimulation was achieved), the Hill coefficient as well as the maximal response in % of the maximal stimulatory effect obtained with saturating concentrations of L-glutamate were calculated.
A depression of the signal observed after addition of the EC20 concentration of L-glutamate was indicative of an inhibitory activity of the test compound.
A general note: Calcium assays in cells follow changes in intracellular calcium, usually with a dye or a luminescent sensor.

T1 sequence (P41594 21-1180 isoform P41594-2 limits assumed): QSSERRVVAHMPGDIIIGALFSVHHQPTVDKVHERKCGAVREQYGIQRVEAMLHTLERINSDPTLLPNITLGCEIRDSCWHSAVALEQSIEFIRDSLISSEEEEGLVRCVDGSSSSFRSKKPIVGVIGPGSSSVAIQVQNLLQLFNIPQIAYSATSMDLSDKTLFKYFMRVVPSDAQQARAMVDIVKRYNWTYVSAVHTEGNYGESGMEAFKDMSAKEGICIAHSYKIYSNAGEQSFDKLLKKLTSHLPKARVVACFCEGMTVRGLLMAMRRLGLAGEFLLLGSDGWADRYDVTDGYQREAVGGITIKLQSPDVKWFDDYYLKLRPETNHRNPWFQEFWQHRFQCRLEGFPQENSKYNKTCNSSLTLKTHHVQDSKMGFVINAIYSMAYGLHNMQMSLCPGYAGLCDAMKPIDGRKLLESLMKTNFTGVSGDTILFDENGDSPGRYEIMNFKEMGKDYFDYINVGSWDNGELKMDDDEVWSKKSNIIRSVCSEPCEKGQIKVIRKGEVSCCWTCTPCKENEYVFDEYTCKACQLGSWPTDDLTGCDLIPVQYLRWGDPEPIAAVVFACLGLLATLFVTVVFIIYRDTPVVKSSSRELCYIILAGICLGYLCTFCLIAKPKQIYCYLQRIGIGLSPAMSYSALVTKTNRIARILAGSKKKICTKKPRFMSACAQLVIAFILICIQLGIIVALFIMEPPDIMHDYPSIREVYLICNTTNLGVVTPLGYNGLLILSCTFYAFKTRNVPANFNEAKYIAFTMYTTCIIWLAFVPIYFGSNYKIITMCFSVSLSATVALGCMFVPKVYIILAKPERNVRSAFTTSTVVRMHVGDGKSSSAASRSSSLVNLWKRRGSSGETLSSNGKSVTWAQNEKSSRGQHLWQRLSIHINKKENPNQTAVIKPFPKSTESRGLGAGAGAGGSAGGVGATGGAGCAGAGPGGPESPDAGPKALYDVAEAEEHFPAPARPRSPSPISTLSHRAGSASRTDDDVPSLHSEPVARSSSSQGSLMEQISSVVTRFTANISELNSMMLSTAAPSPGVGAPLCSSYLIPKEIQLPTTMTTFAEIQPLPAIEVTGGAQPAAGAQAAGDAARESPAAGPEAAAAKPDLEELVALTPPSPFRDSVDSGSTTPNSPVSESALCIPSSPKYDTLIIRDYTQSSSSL

For the compound `CC(NC(=O)c1ccc(C#Cc2cccc(Cl)c2)cn1)C(F)(F)F` (racemic) [Example 61, (RS)-5-(3-Chloro-phenylethynyl)-pyridine-2-carboxylic Acid (2,2,2-trifluoro-1-methyl-ethyl)-amide], the Emax is 83% and the concentration for a half-maximal effect (EC50) was 61 nM.
As for `CN(C(=O)c1ncc(C#Cc2cccc(F)c2)cn1)C1(C(F)(F)F)CC1` [Example 44, 5-(3-Fluoro-phenylethynyl)-pyrimidine-2-carboxylic Acid methyl-(1-trifluoromethyl-cyclopropyl)-amide], the Emax came to 68% and the concentration giving a half-maximal response (EC50) is 42 nM.
Take `CC(N(C)C(=O)c1ccc(C#Cc2cccc(Cl)c2)cn1)C(F)(F)F` (racemic) [Example 62, (RS)-5-(3-Chloro-phenylethynyl)-pyridine-2-carboxylic acid methyl-(2,2,2-trifluoro-1-methyl-ethyl)-amide]: the Emax came out at 35% and the EC50 came out at 25 nM.
As for `CN(C(=O)c1ccc(C#Cc2cccc(F)c2)cn1)C(C)(C)C` [Example 3, 5-(3-Fluoro-phenylethynyl)-pyridine-2-carboxylic Acid tert-butyl-methyl-amide], the Emax came out at 64% and the concentration for a half-maximal effect (EC50) turned out to be 16 nM.
Take `CC1(C)CC(O)CCN1C(=O)c1ncc(C#Cc2cc(F)ccc2F)cn1` (racemic) [Example 66, (RS)-[5-(2,5-Difluoro-phenylethynyl)-pyrimidin-2-yl]-(4-hydroxy-2,2-dimethyl-piperidin-1-yl)-methanone]: the Emax stood at 49% and the EC50 was determined as 101 nM.
Regarding `CC1(C)CN(C(=O)c2ccc(C#Cc3ccc(F)cc3)cn2)CCC1O` (racemic) [Example 40, (RS)-[5-(4-Fluoro-phenylethynyl)-pyridin-2-yl]-(4-hydroxy-3,3-dimethyl-piperidin-1-yl)-methanone], the Emax was determined as 37% and the half-maximal effective concentration (EC50) is 93 nM.
`CN(C(=O)c1ccc(C#Cc2ccccc2)cn1)C(C)(C)C` [Example 2, 5-Phenylethynyl-pyridine-2-carboxylic Acid tert-butyl-methyl-amide]: the Emax is 87% and the EC50 is 19 nM.
With `CN(C(=O)c1ccc(C#Cc2cccnc2)cn1)C(C)(C)C` [Example 6, 5-Pyridin-3-ylethynyl-pyridine-2-carboxylic Acid tert-butyl-methyl-amide], the Emax worked out at 70% and the half-maximal effective concentration (EC50) came out at 72 nM.
`CN(C(=O)c1ncc(C#Cc2ccc(F)cc2)cc1F)C(C)(C)C` [Example 22, 3-Fluoro-5-(4-fluoro-phenylethynyl)-pyridine-2-carboxylic Acid tert-butyl-methyl-amide]: the Emax is 65% and the EC50 is 32 nM.
On to `CC1(C)CN(C(=O)c2ccc(C#Cc3cccc(F)c3)cn2)CCC1O` (racemic) [Example 41, (RS)-[5-(3-Fluoro-phenylethynyl)-pyridin-2-yl]-(4-hydroxy-3,3-dimethyl-piperidin-1-yl)-methanone], for which the Emax came out at 45% and the EC50 turned out to be 72 nM.
As for `CN(C(=O)c1ccc(C#Cc2cc(F)ccc2F)cn1)C1(C)COC1` [Example 29, 5-(2,5-Difluoro-phenylethynyl)-pyridine-2-carboxylic Acid methyl-(3-methyl-oxetan-3-yl)-amide], the Emax came to 45% and the EC50 was found to be 21 nM.
Taken in the same sequence, the figures for `CN(C(=O)c1ccc(C#Cc2ccc(F)c(F)c2)cn1)C1(C)COC1` [Example 30, 5-(3,4-Difluoro-phenylethynyl)-pyridine-2-carboxylic Acid methyl-(3-methyl-oxetan-3-yl)-amide] were 50% and 60 nM.
As for `CC1(O)CCN(C(=O)c2ccc(C#Cc3cccc(F)c3)cn2)CC1` [Example 37, [5-(3-Fluoro-phenylethynyl)-pyridin-2-yl]-(4-hydroxy-4-methyl-piperidin-1-yl)-methanone], the Emax turned out to be 38% and the EC50 amounted to 79 nM.
Taken in the same sequence, the figures for `CN(C(=O)c1ncc(C#Cc2cccc(F)c2)cn1)C(C)(C)C` [Example 12, 5-(3-Fluoro-phenylethynyl)-pyrimidine-2-carboxylic Acid tert-butyl-methyl-amide] were 55% and 23 nM.
The matching figures for `CN(C(=O)c1ccc(C#Cc2cccc(Cl)c2)cn1)C(C)(C)C(F)(F)F` [Example 56, 5-(3-Chloro-phenylethynyl)-pyridine-2-carboxylic Acid methyl-(2,2,2-trifluoro-1,1-dimethyl-ethyl)-amide]: 29% and 22 nM.
The matching figures for `Cc1cccc(C#Cc2cnc(C(=O)NC(C)(C)C)nc2)c1` [Example 13, 5-m-Tolylethynyl-pyrimidine-2-carboxylic Acid tert-butylamide]: 83% and 71 nM.
For `CN(C(=O)c1ccc(C#Cc2cncc(F)c2)cn1)C(C)(C)C` [Example 8, 5-(5-Fluoro-pyridin-3-ylethynyl)-pyridine-2-carboxylic Acid tert-butyl-methyl-amide], the Emax was found to be 79% and the 50% effective concentration (EC50) turned out to be 62 nM.
In the case of `CN(C(=O)c1ccc(C#Cc2cncc(Cl)c2)cn1)C(C)(C)C(F)(F)F` [Example 55, 5-(5-Chloro-pyridin-3-ylethynyl)-pyridine-2-carboxylic Acid methyl-(2,2,2-trifluoro-1,1-dimethyl-ethyl)-amide], the Emax was 63% and the EC50 came out at 37 nM.
The matching figures for `CN(C(=O)c1ccc(C#Cc2ccc(F)cc2)cn1)C(C)(C)C` [Example 4, 5-(4-Fluoro-phenylethynyl)-pyridine-2-carboxylic Acid tert-butyl-methyl-amide]: 83% and 18 nM.
Taken in the same sequence, the figures for `CN(C(=O)c1ncc(C#Cc2ccccc2)cc1C#N)C(C)(C)C` [Example 52, 3-Cyano-5-phenylethynyl-pyridine-2-carboxylic Acid tert-butyl-methyl-amide] were 96% and 34 nM.
With `CC(NC(=O)c1ccc(C#Cc2ccnc(Cl)c2)cn1)C(F)(F)F` (single isomer, unassigned) [Example 59, (R) or (S)-5-(2-Chloro-pyridin-4-ylethynyl)-pyridine-2-carboxylic Acid (2,2,2-trifluoro-1-methyl-ethyl)-amide], the Emax came out at 47% and the half-maximal effective concentration (EC50) is 27 nM.
As to `Cc1cc(C#Cc2ccc(F)cc2)cnc1C(=O)N(C)C(C)(C)C` [Example 18, 5-(4-Fluoro-phenylethynyl)-3-methyl-pyridine-2-carboxylic Acid tert-butyl-methyl-amide], the Emax was 71% and the concentration for a half-maximal effect (EC50) was found to be 76 nM.
On to `CN(C(=O)c1ccc(C#Cc2cccc(F)c2)cn1)C1CCC1` [Example 25, 5-(3-Fluoro-phenylethynyl)-pyridine-2-carboxylic Acid cyclobutyl-methyl-amide], for which the Emax stood at 56% and the EC50 is 32 nM.
Taken in the same sequence, the figures for `O=C(c1ncc(C#Cc2ccccc2)cn1)N1CC(F)(F)C1` [Example 45, (3,3-Difluoro-azetidin-1-yl)-(5-phenylethynyl-pyrimidin-2-yl)-methanone] were 51% and 62 nM.
Turning to `CN(C(=O)c1ncc(C#Cc2ccccc2)cc1Cl)C(C)(C)C` [Example 43, 3-Chloro-5-phenylethynyl-pyridine-2-carboxylic Acid tert-butyl-methyl-amide], the Emax is 69% and the 50% effective concentration (EC50) was determined as 36 nM.
The matching figures for `CC1(C)CC(O)CCN1C(=O)c1ncc(C#Cc2ccccc2)cn1` (racemic) [Example 47, (RS)-(4-Hydroxy-2,2-dimethyl-piperidin-1-yl)-(5-phenylethynyl-pyrimidin-2-yl)-methanone]: 57% and 66 nM.
Regarding `CC1(C)CC(O)CCN1C(=O)c1ccc(C#Cc2cc(F)ccc2F)cn1` (racemic) [Example 64, (RS)-[5-(2,5-Difluoro-phenylethynyl)-pyridin-2-yl]-(4-hydroxy-2,2-dimethyl-piperidin-1-yl)-methanone], the Emax came out at 42% and the EC50 was determined as 34 nM.
Taken in the same sequence, the figures for `CC1(C)CN(C(=O)c2ccc(C#Cc3cccc(F)c3)cn2)CCO1` [Example 35, (2,2-Dimethyl-morpholin-4-yl)-[5-(3-fluoro-phenylethynyl)-pyridin-2-yl]-methanone] were 57% and 46 nM.
